# Values of other authors, collected in US10245273B2, “Oral pharmaceutical products and methods of use combining testosterone esters with hypolipidemic agents” (Clarus Therapeutics, Inc., priority 2013, dated 2019).
compound,measurement,setting,value
Cc1ccc(C)c(OCCCC(C)(C)C(=O)O)c1 [gemfibrozil],Subjects with a primary event,600 mg twice daily for 5 years (placebo 21.7%),17.3%
same,Reduction in CHD events / relative risk reduction of primary outcome (nonfatal myocardial infarction or death of cardiac origin),"600 mg twice daily, median follow-up 5.1 years, vs placebo",22%
same,Increase in numbers of small HDL particles,in vivo,21%
same,Increase in total HDL particles,in vivo,10%
same,"Relative risk reduction for combined cardiac events (nonfatal MI, death from coronary causes or stroke)",vs placebo,24%
